Source: publication PMC9775322, “An Integrated Analysis of Mechanistic Insights into Biomolecular Interactions and Molecular Dynamics of Bio-Inspired Cu(II) and Zn(II) Complexes towards DNA/BSA/SARS-CoV-2 3CL^pro by Molecular Docking-Based Virtual Screening and FRET Detection” (Biomolecules, 2022)

Tested on: CT-DNA
Test: DNA thermal denaturation (biothermodynamic properties)
Type: binding, calf
Settings: for ΔS°: (ΔH°−ΔG°)/Tm; for ΔH°: Van't Hoff equation; for Tm °C of DNA-compound adduct / Tm (K) of DNA-compound adduct: compound 50 μM : CT-DNA 50 μM (1:1), 260 nm; for Tm °C of DNA-compound adduct: CT DNA alone 68 °C; for Tm (K) of DNA-compound adduct: CT DNA alone 341 K; for ΔTm °C: melting temperature change vs DNA alone; for ΔG°: −R·Tm·ln Km
Experimental: The biothermodynamic properties were obtained from absorption titration by a UV–visible spectrophotometer, accomplished with a temperature-controlled sample container in both the presence and absence of the substances. In a 5 mM Tris-HCl/50 mM NaCl buffer solution with a pH of 7.4, each test substance (50 μM) was incubated with CT-DNA (50 μM) in a 1:1 ratio. The test materials were all warmed at a rate of five degrees Celsius per minute to temperatures between 25 and 100 °C, and the changes in absorbance at 260 nm were carefully monitored. […]
ɛa is represented as the apparent absorption coefficient value for the MLCT band at a specific concentration of deoxyribonucleic acid and evaluated from Abs/[complex]. ɛ f and ɛb are the absorption coefficients for the chemical substance alone and completely interacted with deoxyribonucleic acid, respectively. ∆Amax = (Amax–A0); ∆A=(Ax–A0), where A0, Ax and Amax are denoted as the optical density of chemical substances alone, the middle form, and the completely interacted form with deoxyribonucleic acid, respectively.
2.2.3. Evaluation of biothermodynamic properties
The thermal denaturation study of CT-DNA is an efficient tool for examining the stability of test compounds bound to double-stranded DNA. […]
double to single stranded DNA. The biothermodynamic parameters also involve powerful proof for binding between test compounds and DNA. The denaturation of the biomolecules depends on T m, pH and non-physiological concentrations of salt, organic solvents and other chemical agents, etc. The DNA double helix breaks into two single strands as the temperature or pH rises, which is ascribed to the breaking of hydrophobic stacking attractions and the dissolution of H-bonds between the DNA base pairs as a result of the hydroxide ions' […]
withdrawing of the hydrogen ions (H +) from DNA base pairs. It causes a hyperchromic shift […]
inversely proportional to viscosity. Low salt concentration, conversely, can also denature DNA double-strands by eliminating the ions that stabilize the negative charges on the two strands from each other. By using UV-Vis analysis in a temperature-controlled sample holder, DNA thermal denaturation was carried out both in the absence and presence of the test compounds. In 5mM Tris-HCl /50 mM NaCl buffer (pH = 7.4) solution, each test substance (50 μM) was incubated in a 1:1 ratio with CT- DNA (50 μM). All samples were heated in the range of 25 to 100 °C at a rate of 5 °C per minute and the absorbance changes at 260 nm were constantly monitored. T m of DNA alone was evaluated as the midpoint of the sigmoid’ curves plotted absorbance vs temperature profiles. The Tm is depends on the double-stranded DNA stability. Due to substantial intercalation in DNA-complex adducts, the […]
temperature. When increasing temperature, double-stranded DNA converts into two single strands at the melting point, which leads to hyperchromic effect due to reducing the base-base interaction. As compared to DNA alone at the same high temperature, the incubated DNA solution with test compounds leads to hyporchromic effect accompanied with red shift.
Strong interactions between complexes and DNA, which restrict the separation of the double helix, cause the stabilization, and as a result, T m rises. In accordance with the T m, 50% of DNA is in its native double-stranded state, and the remaining 50% is in its denaturalized single-stranded state.
ΔG° = – R.Tm. lnKm = ΔH°– Tm ΔS° (S10)
Where K1 is represented as the binding constant value at 298 K (T r), the binding constant K 2 (Km), which indicates the temperature at which substances melt their DNA (T m K), This […]
technique offers crucial data on binding constants and associated ΔG °, ΔS° and ΔH° findings for compound-deoxyribonucleic acid systems. […]
not deliver definite confirmation for the exact mode of interactions. The experiment

Row | SMILES | Binding Constant Kr (or) K1 @ 298 K [M⁻¹] | ΔS° [cal mol^−1 K^−1] | ΔH° [kcal/mol] | Tm °C of DNA-compound adduct [°C] | Tm (K) of DNA-compound adduct [K] | ΔTm °C [°C] | ΔG° [kcal/mol]
1 | [O-]c1ccccc1N=Cc1ccc(N2CCOCC2)cc1.[O-]c1ccccc1N=Cc1ccc(N2CCOCC2)cc1.[Zn+2].c1cnc2c(c1)ccc1cccnc12 [(2b), [Zn^II(L)2(phen)]] | 19930 | −9.1806 | -8.5979 | 78.5 | 351.5 | 10.5 | -5.3709
2 | Oc1ccccc1N=Cc1ccc(N2CCOCC2)cc1 [(HL), 2-(4-morpholinobenzylideneamino)phenol] | 15169 | −13.7851 | -9.8083 | 74 | 347.0 | 6 | -5.0249
3 | [Cu+2].[O-]c1ccccc1N=Cc1ccc(N2CCOCC2)cc1.[O-]c1ccccc1N=Cc1ccc(N2CCOCC2)cc1.c1cnc2c(c1)ccc1cccnc12 [(1b), [Cu^II(L)2(phen)]] | 20610 | −7.6237 | -8.1538 | 80.5 | 353.5 | 12.5 | -5.4588
